Here are results for one compound from ChEMBL document CHEMBL3886479, “1-H-pyrrolo[2,3-b]pyridine derivatives” (2016).

The structures appear in SMILES notation.

This experiment deals with T1, 3-phosphoinositide-dependent protein kinase 1 (Homo sapiens, UniProt O15530).
T1 sequence (O15530 whole entry): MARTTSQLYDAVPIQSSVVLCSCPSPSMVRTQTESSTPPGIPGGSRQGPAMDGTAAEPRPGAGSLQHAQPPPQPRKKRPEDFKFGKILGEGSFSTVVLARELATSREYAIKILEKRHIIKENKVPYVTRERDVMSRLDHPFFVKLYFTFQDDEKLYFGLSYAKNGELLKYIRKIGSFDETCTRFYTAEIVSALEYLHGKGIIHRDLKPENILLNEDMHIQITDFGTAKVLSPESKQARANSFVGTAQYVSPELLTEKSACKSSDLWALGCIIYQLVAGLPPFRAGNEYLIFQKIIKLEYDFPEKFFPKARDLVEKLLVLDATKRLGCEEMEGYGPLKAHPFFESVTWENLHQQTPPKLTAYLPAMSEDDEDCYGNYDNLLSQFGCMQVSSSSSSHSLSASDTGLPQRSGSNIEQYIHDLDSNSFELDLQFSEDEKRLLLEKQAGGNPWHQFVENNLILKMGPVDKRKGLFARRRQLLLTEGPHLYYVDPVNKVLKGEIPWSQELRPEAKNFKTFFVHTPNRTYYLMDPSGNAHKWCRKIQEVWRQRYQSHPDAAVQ
Briefly: Luminex Assay: The cellular assay for the determination of the PDK1 kinase activity is carried out as a Luminex assay in the 96-well format. PC3 cells are sown at 20,000 cells per well in 100 ul of medium (45% of […]/45% of Ham's F12/10% of FCS) and incubated on the following day for 30 min with a serial dilution of the test substance (7 concentrations) under serum-free conditions. The cells are subsequently lysed using 90 ul of lysis buffer (20 mM tris/HCl pH 8.0, 150 mM NaCl, 1% of NP40, 10% of glycerol, 1% of phosphatase inhibitor I, 1% of phosphatase inhibitor II, 0.1% of protease inhibitor cocktail III, 0.01% of benzonase) per well, and the lysates are separated off from insoluble cell constituents by means of centrifugation through a 96-well filter plate (0.65 um). The lysates are incubated overnight at 4° C. with shaking with Luminex beads to which an anti-total PKB antibody is coupled. The detection is carried out on the following day by addition of a phospho-T308-PKB antibody and a species-specific peroxidase-labelled secondary antibody. The experiment is classed as cell-based. Particulars: pc-3.

`Cn1cc(-c2cnc3[nH]cc(-c4cc(N(CCC#N)c5ccccc5)nc(N)n4)c3c2)cn1` showed an IC50 of 7.1 nM.

For orientation: IC50 means the concentration that gives 50% inhibition. Read a high IC50 as a need for much substance.
